In patent US20180282279A1, “Pantothenamide Analogues” (Radboud Universitair Medisch Centrum, priority 2014, published 2018):
In brackets after ≈: the same amount, converted by molar mass. Read-outs that look alike come from different tables or passages of the source.

What was measured:
Type in all cases: cell-based
Streptococcus pyogenes = experiment: Bacterial growth assay and MIC determination, S. pyogenes; conditions: Streptococcus pyogenes; Table 1; most sensitive species S. pyogenes (SP); read-out: MIC (μg/ml) for most sensitive bacterial species
Procedure: (§1) Strains of Escherichia coli, Staphylococcus aureus and Staphylococcus epidermidis, were grown overnight in 1% Bacto tryptone medium (BD, Sparks, Md.). Streptococcus pyogenes was grown overnight in Bacto Todd Hewitt Broth medium (BD, Sparks, Md.). Cultures were then diluted 1:1,000 in fresh assay medium supplemented with or without 20% fetal bovine serum (FBS; HyClone, Celbio, Logan, Utah) and added to 96-well sterile enzyme-linked immunosorbent assay (ELISA) plates (100 μl per well). The compounds to be tested were diluted in the medium without serum and added to the bacteria (100 μl per well). Plates were incubated at 37° C., and bacterial growth was monitored over time by reading the optical density at 490 nm using a microplate reader (model 450; Bio-Rad Laboratories Inc., Hercules, Calif.). Streptococcus pneumoniae strains were grown to mid-log phase (OD620 of 0.3) and stored in 15% glycerol at […] till further use. Minimal inhibitory concentration (MIC) of antibiotics was determined according to standard procedures. Bacteria were diluted 10-fold in Mueller-Hinton medium (BD, Sparks, Md.) and added to 96-well sterile ELISA plates (150 μl per well). The compounds to be tested were diluted in the medium without serum and added to the bacteria (150 μl per well). Plates were incubated overnight at 37° C. in 5% CO2. The MIC was defined as the lowest concentration of compound at which no growth was visible with the naked eye.

[1] = tested on: Plasmodium falciparum NF54 parasites; experiment: P. falciparum asexual blood stage replication assay (SYBR Green); conditions: NF54, 10% human serum, 72 incubation
Procedure: Compounds were tested on their ability to inhibit replication of the human malaria parasite Plasmodium falciparum. To this end, Plasmodium falciparum NF54 parasites were cultured in RPMI1640 medium supplemented with 367 μM hypoxanthine, 25 mM HEPES, 25 mM sodiumbicarbonate and 10% human type A serum in an automated large-scale culture system as described before (Transactions of the Royal Society of Tropical Medicine and Hygiene, 1982. 76: p. 812-818). Compounds were diluted in DMSO and subsequently in culture medium to reach a DMSO concentration of 0.2%. 50 μl of diluted compound was transferred to a black 96 well plate. A culture of P. falciparum strain NF54 malaria parasites was diluted to a parasitaemia of 0.5% and a hematocrit of 3%. 50 μl of this diluted culture was added to each well in the 96 well plate._The outermost wells of the plate were filled with sterile water to prevent evaporation. The established antimalarial dihydroartemisinin (DHA) in DMSO acted as a positive control (MIN signal), and 0.1% DMSO acted as a negative control (MAX signal). The plates were incubated for 72 at 37° C., 3% 02, 5% CO2, 93% N2. Changes in parasite replication relative to the controls were monitored using the DNA-marker SYBR Green as described previously (Antimicrob Agents Chemother 48:1803-6). Data were analyzed by logistic regression using the formula: Y=Bottom+(Top-Bottom)/(1+10̂((Log IC50−X)*HillSlope)) and a least squares method to find the best fit.
Using similar methods, IC50 values were determined for a variety of inverted pantothenamides, as listed in table 1 (see section: ‘Detailed description of the invention’)

[2] = tested on: Staphylococcus epidermidis; experiment: Bacterial growth assay and MIC determination, S. epidermidis; conditions: Staphylococcus epidermidis; Table 1; most sensitive species S. epidermidis (SE); read-out: MIC (μg/ml) for most sensitive bacterial species
Procedure: as §1

[3] = tested on: S. aureus (SA), S. epidermidis (SE), S. pyogenes (SP), S. pneumoniae (SPn); experiment: MIC for most sensitive bacterial species (panel); conditions: Table 1, no species named, read-out: MIC (μg/ml) for most sensitive bacterial species
Procedure: as §1

| MIC (Streptococcus pyogenes) | IC50 [1] | MIC [2] | MIC ([3]; Streptococcus pneumoniae, marked *: not tested for S. pneumoniae) | MIC ([3]; tested for SA, SE, SP and SPn) | Compound |
| --- | --- | --- | --- | --- | --- |
| 8 µg/mL (≈ 27.7 µM) | 2.78 µM |  |  |  | CC(C)CCC(=O)NCCNC(=O)[C@H](O)C(C)(C)CO [CXP14.18-005] |
| 16 µg/mL (≈ 58.7 µM) | 5.15 µM |  |  |  | C=CCCC(=O)NCCNC(=O)[C@H](O)C(C)(C)CO [CXP14.18-007] |
| 16 µg/mL (≈ 55.9 µM) | 0.74 µM |  |  |  | C=CCCCC(=O)NCCNC(=O)[C@H](O)C(C)(C)CO [CXP14.18-008] |
| 16 µg/mL (≈ 53.3 µM) | 0.71 µM |  |  |  | C=CCCCCC(=O)NCCNC(=O)[C@H](O)C(C)(C)CO [CXP14.18-010] |
|  | > 10 µM | 8 µg/mL (≈ 22.3 µM) |  |  | CCCCCCCCCCC(=O)NCCNC(=O)[C@H](O)C(C)(C)CO [CXP14.18-012] |
| 16 µg/mL (≈ 55.9 µM) | 4.93 µM |  |  |  | C=CC(C)CC(=O)NCCNC(=O)[C@H](O)C(C)(C)CO (stereo partly shown) [CXP14.18-014] |
| 32 µg/mL (≈ 113 µM) | 0.81 µM |  |  |  | C#CCCCC(=O)NCCNC(=O)[C@H](O)C(C)(C)CO [CXP14.18-016] |
|  | 0.17 µM |  | > 32 µg/mL |  | CCC(=O)NCCNC(=O)[C@H](O)C(C)(C)CO [CXP14.18-019] |
| 32 µg/mL (≈ 123 µM) | 2 µM |  |  |  | CCCC(=O)NCCNC(=O)[C@H](O)C(C)(C)CO [CXP14.18-020] |
| 2 µg/mL (≈ 7.29 µM) | 0.85 µM |  |  |  | CCCCC(=O)NCCNC(=O)[C@H](O)C(C)(C)CO [CXP14.18-028] |
| 8 µg/mL (≈ 26.1 µM) | 0.62 µM |  |  |  | CSCCCC(=O)NCCNC(=O)[C@H](O)C(C)(C)CO [CXP14.18-034] |
| 16 µg/mL (≈ 55.1 µM) | > 10 µM |  |  |  | CCOCCC(=O)NCCNC(=O)[C@H](O)C(C)(C)CO [CXP14.18-035] |
| 4 µg/mL (≈ 13.1 µM) | 1.34 µM |  |  |  | CCCSCC(=O)NCCNC(=O)[C@H](O)C(C)(C)CO [CXP14.18-037] |
| 8 µg/mL (≈ 26.1 µM) | 0.37 µM |  |  |  | CCSCCC(=O)NCCNC(=O)[C@H](O)C(C)(C)CO [CXP14.18-038] |
| 16 µg/mL (≈ 51.9 µM) | 3.9 µM |  |  |  | CC(C)(CO)[C@@H](O)C(=O)NCCNC(=O)Cc1ccccc1 [CXP18.6-007] |
|  | 0.57 µM | 16 µg/mL (≈ 47.6 µM) |  |  | CC(C)(CO)[C@@H](O)C(=O)NCCNC(=O)CCCc1ccccc1 [CXP18.6-008] |
|  | 9.2 µM |  |  | > 32 µg/mL | CC(C)(CO)[C@@H](O)C(=O)NCCCNC(=O)Cc1ccccc1 [CXP18.6-009] |
